Here are results for eleven compounds from US4925943A, “2-(2-aminobenzyl or 2-nitrobenzyl)-1,2,3,4-tetrahydroisoquinoline derivatives” (priority 1986, dated 1990).

Each structure is given as a SMILES string. Like-named read-outs stand apart in the source and are kept apart here.

Experiment [1] has as its target α1 adrenergic receptors of rat cerebral cortex. Kind of experiment: [3H] prazosine binding, rat cerebral cortex (α1). More on the design: species or system rat (male Wistar). The settings on record: for Ki: read-out: Prazosine [^3 H] Ki nM, rat cerebral cortex, 0.2 nM [3H] prazosine, 25° C., 30 minutes, at least three experiments ± standard deviation. As for the experimental part: (§1) The preparation of the cerebral cortex homogenates is made starting from male Wistar rats, age 12 weeks. After decapitation, the brains are rapidly removed and dissected. The tissues are homogenized with the aid of an ultra-turrax in 50 mM of a pH 7.5 Tris-HCl buffer and centrifuged at 40,000 g for ten minutes. The centrifugate is dissolved in buffer and recentrifuged in the same way. All of the operations are carried out at a temperature less than 4° C. The final centrifugate is homogenized in the incubation buffer maintained in melting ice (tris-HCl 50 mM pH 7.5) so as to obtain a final dilution of the cortical tissue of 1/100 (by volume), which corresponds to about 0.5 mg of protein per ml.
(§2) These filters are rinsed 4 times with 5 ml of incubation buffer preserved in ice. The radioactivity retained on the filters is counted by liquid scintillation. The non-specific fixation of the radioactive ligand is evaluated in the presence of 10 μM phentolamine.
(§3) Starting from the inhibition curves for the specific fixation of a ligand to its receptor by increasing quantities of a non-radioactive product, the inhibition constant (Ki) of this product is determined.

The target in experiment [2] is T1, α2 adrenergic receptors of rat cerebral cortex (Rattus norvegicus, UniProt P22909).
T1 construct: The preparation of the cerebral cortex homogenates is made starting from male Wistar rats; from tissue; host or cells: cerebral cortex homogenate of male Wistar rats
T1 sequence (P22909 1-465): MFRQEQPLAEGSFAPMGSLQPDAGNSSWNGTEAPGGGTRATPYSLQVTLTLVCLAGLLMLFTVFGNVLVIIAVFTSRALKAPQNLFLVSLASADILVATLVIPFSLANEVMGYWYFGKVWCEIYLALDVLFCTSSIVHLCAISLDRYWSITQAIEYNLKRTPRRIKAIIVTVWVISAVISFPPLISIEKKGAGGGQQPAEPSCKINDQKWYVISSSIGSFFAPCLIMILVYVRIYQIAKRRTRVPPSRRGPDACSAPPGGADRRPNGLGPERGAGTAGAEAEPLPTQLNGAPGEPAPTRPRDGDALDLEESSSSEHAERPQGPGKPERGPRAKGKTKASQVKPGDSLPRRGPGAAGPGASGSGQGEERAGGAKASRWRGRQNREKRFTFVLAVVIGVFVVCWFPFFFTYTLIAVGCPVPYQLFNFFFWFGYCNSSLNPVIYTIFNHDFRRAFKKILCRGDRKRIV
Kind of experiment: [3H] yohimbine binding, rat cerebral cortex (α2). Also noted: species or system rat (male Wistar). As for the experimental part:
as §1, §2, §3

Experiment [3] relates to D2 dopaminergic receptor. Kind of experiment: binding sites of [3H] dexetimide.
Experiment [4] has as its target T2, α1 adrenergic receptors of isolated rat deferent canal (Rattus norvegicus, UniProt P43140).
T2 construct: The deferent canals of 12-week old male Wistar rats are removed; from tissue; host or cells: isolated vas deferens (deferent canal) of male Wistar rats
T2 sequence (P43140 1-466): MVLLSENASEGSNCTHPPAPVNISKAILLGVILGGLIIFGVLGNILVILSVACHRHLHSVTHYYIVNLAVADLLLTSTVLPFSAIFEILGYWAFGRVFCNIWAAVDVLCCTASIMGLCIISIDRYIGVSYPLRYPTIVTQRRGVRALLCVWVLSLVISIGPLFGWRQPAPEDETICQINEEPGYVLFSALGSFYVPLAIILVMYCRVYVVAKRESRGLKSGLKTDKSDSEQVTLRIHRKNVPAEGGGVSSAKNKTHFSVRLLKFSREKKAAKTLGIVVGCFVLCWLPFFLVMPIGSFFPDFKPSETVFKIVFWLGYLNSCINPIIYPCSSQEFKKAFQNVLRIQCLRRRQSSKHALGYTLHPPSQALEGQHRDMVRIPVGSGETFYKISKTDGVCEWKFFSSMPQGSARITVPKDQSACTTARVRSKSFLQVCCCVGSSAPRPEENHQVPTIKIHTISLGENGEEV
Kind of experiment: antagonism with phenylephrine induced contraction of rat deferent canal. More on the design: species or system rat (male Wistar). The settings on record: for effect on effect-concentration curves of phenylephrine: FIG. 3; for slope of Schild relation, antagonism with phenylephrine: rat deferent canal. As for the experimental part: The deferent canals of 12-week old male Wistar rats are removed.
Each organ is connected to an isometric sensor of tradename Statham, made by Gould Inc., Medical Product Division, under a base tension of 0.5 g. Contractions are recorded by a polygraph of tradename Beckman, made by Beckman. To characterize the α2 blocking effect, the deferent canal is electrically stimulated by rectangular impulses of 2 msec duration, 30 volts, with a frequency of 0.2 Hz delivered by a stimulator of tradename Bioscience (Stimulator 100), made by Palmer. After a rest period of 20-30 minutes, increasing concentrations of clonidine are added to the survival medium over 2 minutes. This permits establishing the relation between the effect and concentration of clonidine. After generating two successive, cumulative effect-concentration curves separated by a rest period of 20 minutes, the antagonist is placed in contact with the isolated organ for 10 minutes and a new effect-concentration relationship is determined.
To characterize the α1 blocking effect, the organ is stimulated by phenylephrine. […] After a rest period of 30 minutes, increasing concentrations of phenylephrine are added in the organ cell over 30 seconds. A first effect-concentration relationship is established. After a washing and a new rest period of 15 mins. wherein the organ returns to the initial tension, a second effect-concentration relationship is effected. The antagonist is placed in contact with the tissue returned to its base tension after washing and a third effect-concentration relationship is determined. […] The apparent dissociation constant (KD), calculated according to Furchgott, is the relation between the molar concentration of antagonist and the relation of equiactive doses of agonist (in the presence and absence of antagonist) -1.

Experiment [5] relates to H1 histaminic receptor. Kind of experiment: binding sites of [3H] pyrilamine.
The test system of experiment [6] is serotonergic receptor. Kind of experiment: binding sites of [3H] ketanserine.
In experiment [7] the test system is binding sites of [^3 H] nitrendipine (calcium influx blocking agent). Kind of experiment: binding sites of [3H] nitrendipine.
In experiment [8] the test system is α2 adrenergic receptors of rat aorta. Kind of experiment: antagonism of BHT 920 induced contraction of isolated rat aorta. Also noted: species or system rat (female Wistar). Here is the method:
The antagonism of ISK7 relative to the contracture-causing effect of BHT 920 (2-amino-6-allyl-5,6,7,8-tetrahydro[4,5-d]thiazolo-4H-azepinedihydrochloride) (α2 adrenergic agonist) on rat aorta is taken as an example. There is antagonism when a substance is capable of partially or totally opposing the effects of an agonistic substance.
Rapidly removed female Wistar rat aorta is received in a Krebs solution containing: NaCl 120 mM; KCl 4.8 mM; NaHCO3 25 mM; glucose 10 mM; CaCl2 1.25 mM; MgSO4 1.19 mM; KH2 PO4 1.14 mM. The aorta, freed of connective and adipose tissue, is cut in hoops of a length of about 1 mm. Each hoop is installed in a 10 ml organ cell containing Krebs liquid at 37°, oxygenated with an oxygen-carbon dioxide mixture (95% O2 and 5% CO2) and connected to an isometric sensor of tradename Statham and made by Gould Inc., Medical Product Division, under a base tension of 2 g. Recording of the contractions is effected with a polygraph of tradename Beckman and made by Beckman. After a rest period (1 h) interrupted by washings, a first effect-concentration relation is established by studying the contraction provoked by addition in the cell of increasing concentrations of BHT 920. After a new rest period interrupted by washings (30 min.) where the organ returns to the initial tension, the antagonist is placed in contact with the vessel for 10 minutes; the a new effect-concentration relation with BHT 920 is established. In preliminary experiments, it was established that the first and second effect-concentration relation of the agonist are identical in the absence of antagonist. […] The displacement increases with ISK concentration. […] The apparent dissociation constant of ISK7, calculated from experiments illustrated in FIG. 1 for a competitive antagonism according to Furchgott R. F. (in Catecholamines, ed. by Blaschko and Muscholl, Springer-Verlag, Berlin, 1972, pp. 283-335) is 1.2×10^-7 M for the two concentrations employed. […]

Experiment [9] has as its target T3, α2 adrenergic receptors of isolated rat deferent canal (Rattus norvegicus, UniProt P22909).
T3 sequence (P22909 1-465): T1 sequence (P22909 1-465)
Kind of experiment: antagonism with clonidine on electrically stimulated rat deferent canal.
Protocol: Each organ is connected to an isometric sensor of tradename Statham, made by Gould Inc., Medical Product Division, under a base tension of 0.5 g. Contractions are recorded by a polygraph of tradename Beckman, made by Beckman. To characterize the α2 blocking effect, the deferent canal is electrically stimulated by rectangular impulses of 2 msec duration, 30 volts, with a frequency of 0.2 Hz delivered by a stimulator of tradename Bioscience (Stimulator 100), made by Palmer. After a rest period of 20-30 minutes, increasing concentrations of clonidine are added to the survival medium over 2 minutes. This permits establishing the relation between the effect and concentration of clonidine. After generating two successive, cumulative effect-concentration curves separated by a rest period of 20 minutes, the antagonist is placed in contact with the isolated organ for 10 minutes and a new effect-concentration relationship is determined. In preliminary experiments, it was established that the second and third effect-concentration relation with the agonist are identical in the absence of antagonist.
To characterize the α1 blocking effect, the organ is stimulated by phenylephrine. Stimulation of the rat deferent canal produces a rapid contractile response (maximum contraction is obtained in 30 seconds). After a rest period of 30 minutes, increasing concentrations of phenylephrine are added in the organ cell over 30 seconds. A first effect-concentration relationship is established. After a washing and a new rest period of 15 mins. wherein the organ returns to the initial tension, a second effect-concentration relationship is effected. The antagonist is placed in contact with the tissue returned to its base tension after washing and a third effect-concentration relationship is determined. In preliminary experiments, it was established that the second and third effect-concentration relationship of the agonist are identical in the absence of antagonist. […] The apparent dissociation constant (KD), calculated according to Furchgott, is the relation between the molar concentration of antagonist and the relation of equiactive doses of agonist (in the presence and absence of antagonist) -1.
The effect (inhibition of the contractile response) is expressed as a percentage of the maximum effect.

Experiment [10] has as its system α1 receptors. The settings on record: statement in words, background; cited from earlier work.

Broadly, the Ki is the dissociation constant of the complex between target and ligand, obtained from inhibition or displacement. For `COc1cc(N)c(CN2CCc3cc(OC)c(OC)cc3C2)cc1OC` [ISK4, 2-(2-amino-4,5-dimethoxybenzyl)-6,7-dimethoxy-1,2,3,4-tetrahydroisoquinoline], the Ki is 2900 ± 400 nM in experiment [1] and 810 ± 110 nM in experiment [2].

For orientation: Kb means the equilibrium dissociation constant of an antagonist, usually derived from a functional assay. A lower Kb goes with a more potent antagonist. For the compound `COc1ccc2c(c1)CCN(Cc1cc(OC)c(OC)cc1N)C2` [ISK7, 2-(2-amino-4,5-dimethoxybenzyl)-6-methoxy-1,2,3,4-tetrahydroisoquinoline], in experiment [3], the “affinity for the binding sites of [^3 H] dexetimide” value is “no affinity”. Further, in experiment [4], the “effect on effect-concentration curves of phenylephrine” value is on record as “shifted toward the right without depression of the maximum”. Besides, the “slope of Schild relation, antagonism with phenylephrine” value (from here on “slope … with phenylephrine”) in experiment [4] is “very different than 1”. The Kd in experiment [4] (read-out: log of KD, antagonism with phenylephrine (pA2 cannot be calculated) (converted)) is 2880 nM; in experiment [8] (according to Furchgott, competitive antagonism, two concentrations (10^-7 and 10^-6), read-out: apparent dissociation constant (antagonism of BHT 920, rat aorta)), 120 nM. Besides, the “inhibition of the effect of phenylephrine relative to clonidine” value in [4] (α1 versus α2, rat deferent canal) is given as “only at concentrations very significantly higher than the concentrations at which it competitively inhibits the effect of α2 selective agonist, clonidine”. Besides, in experiment [5], the “affinity for the binding sites of [^3 H] pyrilamine” value is listed as “no affinity”. The “affinity for the binding sites of [^3 H] ketanserine” value in [6] is on record as “no affinity”. For the same compound, the “affinity for the binding sites of [^3 H] nitrendipine” value in experiment [7] is given as “no affinity”. Moreover, the Ki in [1] amounted to 990 ± 50 nM; in experiment [2] it was 63 ± 20 nM. The compound further gave a pA2 on aorta in experiment [8] (antagonism with BHT 920) of 6.9. Besides, the “effect on effect-concentration curve of BHT 920” value in experiment [8] (rat aorta, 10 minutes contact) is “shift to the right of the effect-concentration curve of the agonist, without depression of the maximum”. Further, the Kb in [9] is 200 nM. The “effect on effect-concentration curves of clonidine” value in [9] (FIG. 2, ISK7 100-3000 nM, prazosine 1000-10,000 nM, yohimbine 30-1000 nM) was “shift toward the right of the effect-concentration curves of agonist without diminution of the maximum effect”. Further, the “antagonist selectivity on isolated rat deferent canal” value in experiment [9] (clonidine (α2) versus phenylephrine (α1)) is reported as “selective, α2 type adrenergic antagonist”. Moreover, in experiment [9] (rat deferent canal, electric stimulation), the “slope of Schild relation, antagonism with clonidine” value is reported as 1.05.

For `COc1cc2c(cc1OC)CN(Cc1ccccc1N)CC2` [ISK17, 2-(2-aminobenzyl)-6,7-dimethoxy-1,2,3,4-tetrahydroisoquinoline], the inhibition constant (Ki) is 3400 ± 300 nM in [1] and 1700 ± 300 nM in experiment [2].

On to `COc1cc(N)c(CN2CCc3ccccc3C2)cc1OC` [ISK18, 2-(2-amino-4,5-dimethoxybenzyl)-1,2,3,4-tetrahydroisoquinoline], for which the Ki was found to be 3220 ± 70 nM in experiment [1] and 220 ± 75 nM in experiment [2].

For the compound `CNc1cc(OC)c(OC)cc1CN1CCc2cc(OC)c(OC)cc2C1` [ISK23, 2-(2-methylamino-4,5-dimethoxybenzyl)-6,7-dimethoxy-1,2,3,4-tetrahydroisoquinoline], the inhibition constant (Ki) in experiment [1] was greater than 10000 nM; in [2], 2670 ± 400 nM.

For `O=[N+]([O-])c1cc(Cl)ccc1CN1CCc2ccccc2C1` [ISK24, 2-(2-nitro-4-chlorobenzyl)-1,2,3,4-tetrahydroisoquinoline], the Ki in experiment [1] was greater than 30000 nM; in [2], 2740 ± 1020 nM.

Take `Nc1cc(Cl)ccc1CN1CCc2ccccc2C1` [ISK25, 2-(2-amino-4-chlorobenzyl)-1,2,3,4-tetrahydroisoquinoline]: the Ki in experiment [1] is greater than 30000 nM; in [2], 1400 ± 375 nM.

Take `COc1ccc2c(c1)CCN(Cc1ccc(Cl)cc1N)C2` [ISK31, 2-(2-amino-4-chlorobenzyl)-6-methoxy-1,2,3,4-tetrahydroisoquinoline]: the Ki was found to be 1800 ± 330 nM in [1] and 155 ± 35 nM in experiment [2].

With `COc1cc2nc(N3CCN(C(=O)c4ccco4)CC3)nc(N)c2cc1OC` [Prazosine [^3 H], reference compound], the Kd in experiment [1] (read-out: KD of Prazosine [^3 H], radioligand) amounted to 0.14 nM.

With `COc1cc2nc(N3CCN(C(=O)c4ccco4)CC3)nc(N)c2cc1OC` [Prazosine, reference compound], in [4], the “effect on effect-concentration curves of phenylephrine” value was “shifted toward the right without depression of the maximum” and the “slope … with phenylephrine” value is listed as 0.99.

On to `COC(=O)[C@@H]1[C@H]2C[C@H]3c4[nH]c5ccccc5c4CCN3C[C@@H]2CC[C@@H]1O` [Yohimbine, reference compound], for which the “affinity for α1 receptors” value in experiment [10] is recorded as “only slight affinity”. In experiment [4], the “effect on effect-concentration curves of phenylephrine” value is “shifted toward the right without depression of the maximum” and the “slope … with phenylephrine” value amounted to 0.85. Also, the inhibition constant Ki in experiment [1] stood at 350 ± 30 nM. In experiment [9], the “effect on effect-concentration curves of clonidine” value is reported as “shift toward the right of the effect-concentration curves of agonist without diminution of the maximum effect” and the “slope of Schild relation, antagonism with clonidine” value is reported as 1.15.
